Results as given in patent publication US20250066346A1, “SOLID FORMS OF A BENZTHIAZOLE-PIPERAZINYL-OXAZOLE COMPOUND AND METHODS OF USE THEREOF” (Hepagene Therapeutics (HK) Limited, priority 2022, published 2025).
Values after ≈ are worked out from the molar mass of the structure shown. Where a name gives a salt, the structure may show the parent alone. Each block holds one compound with its values, some of them ahead of it.

Key:
Format in all cases: physicochemical
[1] = Kinetic solubility in water and bio-relevant media (SGF, FaSSIF, FeSSIF) at 37° C.; parameters: key to FC: form change: Yes: form changed; No: form not changed; details: for pH: filtered supernatant
Protocol: Agilent 1260 HPLC was utilized and detailed chromatographic conditions are provided in Tables 3 and 4 for purity and solubility test, respectively.
About 20 mg of free base (form A) HCl salt (form B), and HBr salt (form D) were added to a 5-mL glass vials followed by the addition of 4 mL of the corresponding medium/solvent into each glass vial to form a suspension. The vials were capped and rolled at 37° C. (25 rpm). Samples were removed (1 mL) at 1 h, 4 h, and 24 h and centrifuged (14000 rpm, 2 min, room temperature). The supernatant was filtered through 0.22 μm syringe filter (first few drops of filtrate were discarded) for HPLC solubility and pH tests (Table 15). The residual solids were analyzed by XRPD.

[2] = Hygroscopicity by dynamic vapor sorption (DVS) at 25° C.
Protocol: DVS was measured via a SMS (Surface Measurement Systems) DVS Intrinsic. The relative humidity at 25° C. was calibrated against deliquescence point of LiCl, Mg(NO3)2 and KCl.

[3] = Solid state stability (XRPD for physical stability, HPLC purity for chemical stability); details: for Purity/initial purity: HPLC; for Form change: XRPD
Text: All the samples were characterized by XRPD for physical stability and HPLC purity for chemical stability evaluation (Table 16).

[4] = Approximate solubility of Form A in solvents at room temperature (stepwise solvent addition, visual); details: organic solvent or mixture, thermodynamic from solid
Protocol: Approximately 2 mg of Form A of Compound I was added into a 3-mL glass vial. At room temperature, the solvents in Table 8 were then added stepwise into the vials until the solids were dissolved visually or a total volume of 2 mL was reached.

[5] = Form conversion by variable-temperature XRPD (VT-XRPD)
Protocol: […] 22.
Based on data above, it would convert to dehydrate state (HCl salt Form C) at low humidity and back to hydrate at high humidity.
HBr salt Form E was observed after N2 purging HBr salt Form D for 20 min at 30° C. via variable-temperature XRPD (VT-XRPD) shown in FIG. 23.
Based on data above, it would convert to dehydrate state (HBr salt Form E) at low humidity and back to hydrate at high humidity.

solubility in FaSSIF and FeSSIF (in words) ([1]; FaSSIF and FeSSIF): significant solubility improvement | FC: form change ([1]; FaSSIF, 1 hr): No | S: solubility ([1]; FaSSIF, 1 hr): 320 µg/mL | pH ([1]; FaSSIF, 1 hr): 6.3 | FC: form change ([1]; FaSSIF, 4 hrs): No | S: solubility ([1]; FaSSIF, 4 hrs): 460 µg/mL | pH ([1]; FaSSIF, 4 hrs): 6.3 | FC: form change ([1]; FaSSIF, 24 hrs): No | S: solubility ([1]; FaSSIF, 24 hrs): 640 µg/mL | pH ([1]; FaSSIF, 24 hrs): 6.3 | FC: form change ([1]; FeSSIF, 1 hr): No | S: solubility ([1]; FeSSIF, 1 hr): 660 µg/mL | pH ([1]; FeSSIF, 1 hr): 5.1 | FC: form change ([1]; FeSSIF, 4 hrs): No | S: solubility ([1]; FeSSIF, 4 hrs): 710 µg/mL | pH ([1]; FeSSIF, 4 hrs): 5.1 | FC: form change ([1]; FeSSIF, 24 hrs): No | S: solubility ([1]; FeSSIF, 24 hrs): 780 µg/mL | pH ([1]; FeSSIF, 24 hrs): 5.0 | FC: form change ([1]; H2O, 1 hr): No | S: solubility ([1]; H2O, 1 hr): 0.6 µg/mL | pH ([1]; H2O, 1 hr): 3.0 | FC: form change ([1]; H2O, 4 hrs): No | S: solubility ([1]; H2O, 4 hrs): 0.7 µg/mL | pH ([1]; H2O, 4 hrs): 3.0 | FC: form change ([1]; H2O, 24 hrs): No | S: solubility ([1]; H2O, 24 hrs): 0.6 µg/mL | pH ([1]; H2O, 24 hrs): 3.0 | FC: form change ([1]; SGF, 1 hr): No | S: solubility ([1]; SGF, 1 hr): 31 µg/mL | pH ([1]; SGF, 1 hr): 1.9 | FC: form change ([1]; SGF, 4 hrs): No | S: solubility ([1]; SGF, 4 hrs): 30 µg/mL | pH ([1]; SGF, 4 hrs): 1.9 | FC: form change ([1]; SGF, 24 hrs): Yes | S: solubility ([1]; SGF, 24 hrs): 43 µg/mL | pH ([1]; SGF, 24 hrs): 1.7 | solubility in SGF, FaSSIF, and FeSSIF compared with free base (form A) and HCl salt (form B) ([1]; SGF, FaSSIF, FeSSIF): improved solubility | solubility in water, ranking among form A, form B, form D ([1]; water): lowest solubility | water uptake ([2]; in the range of 0% RH to 20% RH, platform between 20% RH and 80% RH): 2.6% | Purity/initial purity ([3]; 25° C./60% RH/1 week): 99.9% | Form change ([3]; 25° C./60% RH/1 week): No | Purity/initial purity ([3]; 40° C./75% RH/1 week): 99.9% | Form change ([3]; 40° C./75% RH/1 week): No | HPLC purity after storage (in words) ([3]; 80° C. for 1 day): decreased | Purity/initial purity ([3]; 80° C./1 day): 99.5% | Form change ([3]; 80° C./1 day): No | form change (in words) ([3]; all test conditions): no form change was observed
Compound: COc1cc(C(=O)O)cc2sc(N3CCN(Cc4c(-c5c(Cl)cccc5Cl)noc4C4CC4)C[C@H]3C)nc12 [HBr salt Form D, (R)-2-(4-((5-cyclopropyl-3-(2,6-dichlorophenyl)isoxazol-4-yl)methyl)-2-methylpiperazin-1-yl)-4-methoxybenzo[d]thiazole-6-carboxylic acid]

FC: form change ([1]; FaSSIF, 1 hr): No | S: solubility ([1]; FaSSIF, 1 hr): 16 µg/mL | pH ([1]; FaSSIF, 1 hr): 6.4 | FC: form change ([1]; FaSSIF, 4 hrs): No | S: solubility ([1]; FaSSIF, 4 hrs): 17 µg/mL | pH ([1]; FaSSIF, 4 hrs): 6.5 | FC: form change ([1]; FaSSIF, 24 hrs): No | S: solubility ([1]; FaSSIF, 24 hrs): 22 µg/mL | pH ([1]; FaSSIF, 24 hrs): 6.4 | FC: form change ([1]; FeSSIF, 1 hr): No | S: solubility ([1]; FeSSIF, 1 hr): 51 µg/mL | pH ([1]; FeSSIF, 1 hr): 5.0 | FC: form change ([1]; FeSSIF, 4 hrs): No | S: solubility ([1]; FeSSIF, 4 hrs): 56 µg/mL | pH ([1]; FeSSIF, 4 hrs): 5.1 | FC: form change ([1]; FeSSIF, 24 hrs): No | S: solubility ([1]; FeSSIF, 24 hrs): 56 µg/mL | pH ([1]; FeSSIF, 24 hrs): 5.1 | FC: form change ([1]; H2O, 1 hr): No | S: solubility ([1]; H2O, 1 hr): 3 µg/mL | pH ([1]; H2O, 1 hr): 6.2 | FC: form change ([1]; H2O, 4 hrs): No | S: solubility ([1]; H2O, 4 hrs): 2.3 µg/mL | pH ([1]; H2O, 4 hrs): 6.3 | FC: form change ([1]; H2O, 24 hrs): No | S: solubility ([1]; H2O, 24 hrs): 4.6 µg/mL | pH ([1]; H2O, 24 hrs): 6.4 | FC: form change ([1]; SGF, 1 hr): No | S: solubility ([1]; SGF, 1 hr): 20 µg/mL | pH ([1]; SGF, 1 hr): 2.1 | FC: form change ([1]; SGF, 4 hrs): No | S: solubility ([1]; SGF, 4 hrs): 18 µg/mL | pH ([1]; SGF, 4 hrs): 1.8 | FC: form change ([1]; SGF, 24 hrs): No | S: solubility ([1]; SGF, 24 hrs): 17 µg/mL | pH ([1]; SGF, 24 hrs): 2.0 | solubility ([1]; water, 37 °C, thermodynamic from solid, text summary of Table 15): < 7 µg/mL | hygroscopicity (in words) ([2]; DVS): non-hygroscopic | water uptake ([2]; at 80% RH): 0.15% | solubility ([4]; 2-MeTHF): > 40000 µg/mL | solubility ([4]; ACN): 4800 to 9500 µg/mL (≈ 8.37 to 16.6 mM) | solubility ([4]; Acetone): > 42000 µg/mL | solubility ([4]; CPME): 11500 to 23000 µg/mL (≈ 20.1 to 40.1 mM) | solubility ([4]; CPME/n-heptane (2:1)): 2300 to 4600 µg/mL (≈ 4.01 to 8.02 mM) | solubility ([4]; EtOAc): 10000 to 20000 µg/mL (≈ 17.4 to 34.9 mM) | solubility ([4]; IPAc): 3800 to 6300 µg/mL (≈ 6.63 to 11 mM) | solubility ([4]; MIBK): 10000 to 20000 µg/mL (≈ 17.4 to 34.9 mM) | solubility ([4]; MIBK/n-heptane (2:1)): 4200 to 7000 µg/mL (≈ 7.32 to 12.2 mM) | solubility ([4]; MeOH): 10500 to 21000 µg/mL (≈ 18.3 to 36.6 mM) | solubility ([4]; MeOH/H2O (9:1)): 5300 to 10500 µg/mL (≈ 9.24 to 18.3 mM) | solubility ([4]; THF): > 40000 µg/mL | solubility ([4]; THF/n-heptane (2:1)): > 38000 µg/mL | Purity/initial purity ([3]; 25° C./60% RH/1 week): 100.0% | Form change ([3]; 25° C./60% RH/1 week): No | Purity/initial purity ([3]; 40° C./75% RH/1 week): 99.9% | Form change ([3]; 40° C./75% RH/1 week): No | solid state stability (overall, in words) ([3]; 80° C./1 day, 25° C./60% RH/1 week, 40° C./75% RH/1 week): good solid state stability | Purity/initial purity ([3]; 80° C./1 day): 99.8% | Form change ([3]; 80° C./1 day): No
Compound: COc1cc(C(=O)O)cc2sc(N3CCN(Cc4c(-c5c(Cl)cccc5Cl)noc4C4CC4)C[C@H]3C)nc12 [Form A, (R)-2-(4-((5-cyclopropyl-3-(2,6-dichlorophenyl)isoxazol-4-yl)methyl)-2-methylpiperazin-1-yl)-4-methoxybenzo[d]thiazole-6-carboxylic acid]

form after exposing to ambient conditions ([5]; ambient conditions for about 10 min): HBr salt Form D was re-obtained | form change after heating to 120° C. and cooling to 30° C. ([5]; with N2 protection, VT-XRPD): no form change occurred
Compound: COc1cc(C(=O)O)cc2sc(N3CCN(Cc4c(-c5c(Cl)cccc5Cl)noc4C4CC4)C[C@H]3C)nc12 [Form E, (R)-2-(4-((5-cyclopropyl-3-(2,6-dichlorophenyl)isoxazol-4-yl)methyl)-2-methylpiperazin-1-yl)-4-methoxybenzo[d]thiazole-6-carboxylic acid]
